The values that follow come from ChEMBL document CHEMBL1159059, “Fluoroalkene modification of mercaptoacetamide-based histone deacetylase inhibitors” (Bioorg Med Chem, 2010).

The term IC50 denotes the concentration at which inhibition is half-maximal.

Molecules are shown by their SMILES.

In the assay the target is Histone deacetylase. The assay can be described thus: Inhibition of HDAC in human HeLa cell nuclear extract by fluorescence assay. The assay is classed as cell-based.
Consider `O=C(CCCCC/C=C(\F)CS)Nc1ccccc1`, for which the IC50 is 360 nM.

Take `O=C(CCCC/C=C(\F)CS)Nc1ccccc1`: the 50% inhibitory concentration (IC50) came out at 510 nM.

In the case of `O=C(NCCCCC/C=C(\F)CS)c1ccccc1`, the IC50 amounted to 290 nM.
